Test results: ChEMBL document CHEMBL5154817, “Structure-activity relationship studies on O-alkylamino-tethered salicylamide derivatives with various amino acid linkers as potent anticancer agents” (Eur J Med Chem, 2022)

Experiments:
[1] = tested on: MDA-MB-231; assay: Antiproliferative activity against human MDA-MB-231 cells assessed as inhibition of cell growth incubated for 72 hrs by MTT assay; assay type: functional, cell-based; conditions: MDA-MB-231, 72 h
[2] = tested on: MCF7; assay: Antiproliferative activity against human MCF7 cells assessed as inhibition of cell growth incubated for 72 hrs by MTT assay; assay type: functional, cell-based; conditions: MCF7, 72 h

CC(C)(C)OCC(NC(=O)c1cc(Cl)ccc1OCCNC(=O)OC(C)(C)C)C(=O)Nc1ccc([N+](=O)[O-])cc1Cl (single isomer, unassigned)
IC50 [1]: > 10 µM
IC50 [2]: > 10 µM

NCCOc1ccc(Cl)cc1C(=O)N[C@@H](Cc1ccccc1)C(=O)Nc1cc(C(F)(F)F)cc(C(F)(F)F)c1
IC50 [1]: 4.92 µM
IC50 [2]: 2.95 µM

O=C(N[C@@H](Cc1ccccc1)C(=O)Nc1ccc([N+](=O)[O-])cc1Cl)c1cc(Cl)ccc1OC1CCNCC1
IC50 [1]: 3.24 µM
IC50 [2]: 4.48 µM

CC(C)(C)OC(=O)CC[C@H](NC(=O)c1cc(Cl)ccc1OCCNC(=O)OC(C)(C)C)C(=O)Nc1ccc([N+](=O)[O-])cc1Cl
IC50 [1]: > 10 µM
IC50 [2]: > 10 µM

C[C@H](NC(=O)c1cc(Cl)ccc1OCCN)C(=O)Nc1ccc([N+](=O)[O-])cc1Cl
IC50 [1]: > 10 µM
IC50 [2]: > 10 µM

CC(C)C[C@H](NC(=O)c1cc(Cl)ccc1OCCN)C(=O)Nc1ccc([N+](=O)[O-])cc1Cl
IC50 [1]: > 10 µM
IC50 [2]: > 10 µM

CC(C)[C@H](NC(=O)c1cc(Cl)ccc1OCCN)C(=O)Nc1ccc(C(F)(F)F)cc1Cl
IC50 [1]: 5.44 µM
IC50 [2]: > 10 µM

CC(C)[C@H](NC(=O)c1cc(Cl)ccc1OCCNC(=O)OC(C)(C)C)C(=O)Nc1ccc(C(F)(F)F)cc1Cl
IC50 [1]: > 10 µM
IC50 [2]: > 10 µM

CC[C@@H](C)[C@H](NC(=O)c1cc(Cl)ccc1OCCN)C(=O)Nc1ccc([N+](=O)[O-])cc1Cl
IC50 [1]: 6.18 µM
IC50 [2]: > 10 µM

NCCOc1ccc(Cl)cc1C(=O)NCC(=O)Nc1ccc2c(c1)S(=O)(=O)C=C2
IC50 [1]: 6.37 µM
IC50 [2]: 9.44 µM

CC(=O)NCCOc1ccc(Cl)cc1C(=O)N[C@H](C(=O)Nc1ccc([N+](=O)[O-])cc1Cl)C(C)C
IC50 [1]: > 10 µM
IC50 [2]: > 10 µM

CC(C)(C)OC(=O)NCCOc1ccc(Cl)cc1C(=O)N[C@@H](Cc1ccccc1)C(=O)Nc1cc(C(F)(F)F)cc(C(F)(F)F)c1
IC50 [1]: > 10 µM
IC50 [2]: > 10 µM

CSCC[C@H](NC(=O)c1cc(Cl)ccc1OCCNC(=O)OC(C)(C)C)C(=O)Nc1ccc([N+](=O)[O-])cc1Cl
IC50 [1]: > 10 µM
IC50 [2]: > 10 µM

CC(C)C[C@H](NC(=O)c1cc(Cl)ccc1OCCNC(=O)OC(C)(C)C)C(=O)Nc1ccc([N+](=O)[O-])cc1Cl
IC50 [1]: > 10 µM
IC50 [2]: > 10 µM

CSCC[C@H](NC(=O)c1cc(Cl)ccc1OCCN)C(=O)Nc1ccc([N+](=O)[O-])cc1Cl
IC50 [1]: > 10 µM
IC50 [2]: > 10 µM

CC(C)[C@H](NC(=O)c1cc(Cl)ccc1OCCNC(=O)OCc1ccccc1)C(=O)Nc1ccc([N+](=O)[O-])cc1Cl
IC50 [1]: > 10 µM
IC50 [2]: > 10 µM

CC(C)(C)OC(=O)NCCOc1ccc(Cl)cc1C(=O)N[C@@H](Cc1ccccc1)C(=O)Nc1ccc([N+](=O)[O-])cc1Cl
IC50 [1]: > 10 µM
IC50 [2]: > 10 µM

COC(=O)NCCOc1ccc(Cl)cc1C(=O)N[C@H](C(=O)Nc1ccc([N+](=O)[O-])cc1Cl)C(C)C
IC50 [1]: > 10 µM
IC50 [2]: > 10 µM

NCCOc1ccc(Cl)cc1C(=O)N[C@@H](Cc1ccccc1)C(=O)Nc1ccc([N+](=O)[O-])cc1Cl
IC50 [1]: 7.97 µM
IC50 [2]: 6.58 µM

CC(C)[C@H](NC(=O)c1cc(Cl)ccc1OCCCCNC(=O)OC(C)(C)C)C(=O)Nc1ccc([N+](=O)[O-])cc1Cl
IC50 [1]: > 10 µM
IC50 [2]: > 10 µM

CC(C)(C)OC(=O)NCCOc1ccc(Cl)cc1C(=O)N[C@@H](Cc1ccc(O)cc1)C(=O)Nc1ccc([N+](=O)[O-])cc1Cl
IC50 [1]: > 10 µM
IC50 [2]: 8.81 µM

CC(C)(C)OC(=O)N1CCC(Oc2ccc(Cl)cc2C(=O)N[C@@H](Cc2ccccc2)C(=O)Nc2ccc([N+](=O)[O-])cc2Cl)CC1
IC50 [1]: > 10 µM
IC50 [2]: > 10 µM

CC(C)[C@H](NC(=O)c1cc(Cl)ccc1OCCNC(=O)OC(C)(C)C)C(=O)Nc1ccc(F)c(F)c1
IC50 [1]: 3.72 µM
IC50 [2]: > 10 µM

CC(C)[C@H](NC(=O)c1cc(Cl)ccc1OCCNC(=O)OC(C)(C)C)C(=O)Nc1cc(C(F)(F)F)cc(C(F)(F)F)c1
IC50 [1]: > 10 µM
IC50 [2]: > 10 µM

CC(C)[C@H](NC(=O)c1cc(Cl)ccc1OCCN)C(=O)Nc1ccc(F)c(F)c1
IC50 [1]: > 10 µM
IC50 [2]: > 10 µM
